The assay deals with T1, APC (Homo sapiens, UniProt P04070).
T1 construct: begins at amino acid residue position 158 and ends at 419; The light chain is 155 amino acid residues in length; tissue Factor IX concentrate from Immuno AG, Vienna; thrombin from Enzyme Research Laboratories
As to the kind of experiment: Activated partial thromboplastin time (APTT) coagulation assay of APC anticoagulant activity. The conditions noted are these: APTT assay in the presence of APC. It counts as biochemical. The protocol:
The effect of the synthetic peptides on APC anticoagulant activity were determined using the APTT assay in the presence of either normal citrate anticoagulated plasma (NHP) or protein S depleted plasma (PSDP). The assays were performed essentially as described. See Marlar et al., Blood, 59:1067-1072 […]; Suzuki et al., J. Biol. Chem., 258:163-168 (1983); Gruber et al., Blood, 73:639-642 (1989); Ohlin et al., Biochem., 29:644-651 (1990). NHP was purchased from George King Bio-Medical, Inc. (Overland Park, Kans.). PSDP was prepared from a normal human citrate-anticoagulated plasma pool from ten healthy donors. Protein S was immunodepleted from the NHP by immunoaffinity chromatography of NHP over an anti-protein S antibody column to form PSDP. The anti-protein S antibody column was prepared by coupling 100 mg of a monoclonal, high-affinity, calcium-independent anti-PS antibody, designated S7, to 30 ml of CNBr-activated Sepharose 4B (Pharmacia) as described in Example 2c1). Residual total protein S content in the resultant PSDP was less than 0.1% protein S as determined by quantitative immunoblotting, by solid-phase ELISA for total protein S and by electroimmunoassay.
For the APTT assay, APC was prepared as described in Example 2c2). The specific anticoagulant activity of APC was determined to be 250 Units/mg. The concentration of the APC used in the assay was initially optimized with respect to the sensitivity of the assay towards APC-induced prolongation of clotting time compared to clotting time without APC.
Once the optimal concentration of APC was determined, peptides from Table 2 were then separately admixed for a final concentration of 500 μM with 10 nM APC in 100 μl of TBS-BSA at pH 7.4 to form peptide-APC admixtures. The resulting admixtures were maintained for seven minutes at 37° C. Separate aliquots of peptides maintained under the same conditions in the absence of APC served as controls for the inhibitory effect of synthetic peptides on APC anticoagulant activity. After the maintenance period, 100 μl of NHP and 100 μl APTT-reagent Thrombosil (Ortho Diagnostics, Raritan, N.J.) were admixed into each peptide admixture and maintained for 200 seconds at 37° C. to form a pre-coagulation admixture. In some experiments, PSDP was used in the place of NHP to determine the effect of Protein S on the assay system. Coagulation was then initiated by the admixture of 100 μl of 30 mM CaCl2 in TBS prewarmed to 37° C. to each of the pre-coagulation admixtures. The time for clot formation was measured by an Electra 700 Automatic Coagulation Timer (Medical Laboratory Automation, Inc., Mount Vernon, N.Y.). Each peptide's effect was determined in duplicate.
Additional assays were performed to compare the specificity of the inhibitory effect of peptide-(390-404) on APC anticoagulant activity. Both APTT and Xa-1-stage assays were performed with peptide-(390-404) and with the same peptide synthesized in the reverse order, peptide-(404-390), at concentrations of the peptides ranging from 0 μM to 40 μM. In APTT assays performed as described above in the presence of NHP, APC was used at a concentration of 2.5 nM. For APTT assays in the presence of PSDP, APC was used at a concentration of 5 nM. […]
Once the optimal concentration of APC was determined, anti-(390-404) was separately admixed ranging in concentration from 0.0 to 240 nM with APC in 200 μl of TBS-BSA and 30 mM CaCl2 at pH 7.4 to form an anti-(390-404)-APC immunoreaction admixture pre-maintenance solution. […]

No end group written: not given here.

T1 sequence (P04070 212-461): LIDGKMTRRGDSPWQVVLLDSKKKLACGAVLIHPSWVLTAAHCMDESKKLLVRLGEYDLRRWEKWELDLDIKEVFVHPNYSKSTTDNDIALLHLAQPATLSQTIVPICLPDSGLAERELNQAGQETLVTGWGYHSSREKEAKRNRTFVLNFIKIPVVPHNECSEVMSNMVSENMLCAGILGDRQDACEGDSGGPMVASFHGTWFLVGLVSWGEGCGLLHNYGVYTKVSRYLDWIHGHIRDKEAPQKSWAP
T1 sequence (P04070 43-197): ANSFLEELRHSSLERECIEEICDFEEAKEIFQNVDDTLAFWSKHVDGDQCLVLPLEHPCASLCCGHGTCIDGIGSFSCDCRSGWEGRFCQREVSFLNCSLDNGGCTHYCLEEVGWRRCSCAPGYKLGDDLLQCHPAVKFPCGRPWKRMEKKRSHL

What is called IC50 is the concentration that inhibits the measured activity by half. As usually defined, the IC90 is the point of the concentration-response curve where the effect stands at 90%. In the case of “KRNRTFVLNFIKIPV-NH2 [peptide-(311-325), KRNRTFVLNFIKIPV]”, the half-maximal inhibitory concentration (IC50) turned out to be 20 µM and the 90% effect concentration (IC90) is 50 µM.

These data come from US5279956A, “Activated protein C polypeptides and anti-peptide antibodies, diagnostic methods and systems for inhibiting activated protein C” (The Scripps Research Institute, priority 1991, dated 1994).
